Measured values taken from article PMC3720735 (PLoS ONE, 2013).

Tests used:
[1] = biological target: T1, α7-nicotinic acetylcholine receptor (Homo sapiens, UniProt P36544); experiment: two-electrode voltage clamp of ACh currents in Xenopus oocytes expressing the human receptor; type: cell-based
T1 construct: gene CHRNA7

α7-nACh receptor = biological target: T2, α7-nACh receptor (Rattus norvegicus, UniProt Q05941); type: cell-based
T2 construct: gene Chrna7
T2 sequence (Q05941 23-502): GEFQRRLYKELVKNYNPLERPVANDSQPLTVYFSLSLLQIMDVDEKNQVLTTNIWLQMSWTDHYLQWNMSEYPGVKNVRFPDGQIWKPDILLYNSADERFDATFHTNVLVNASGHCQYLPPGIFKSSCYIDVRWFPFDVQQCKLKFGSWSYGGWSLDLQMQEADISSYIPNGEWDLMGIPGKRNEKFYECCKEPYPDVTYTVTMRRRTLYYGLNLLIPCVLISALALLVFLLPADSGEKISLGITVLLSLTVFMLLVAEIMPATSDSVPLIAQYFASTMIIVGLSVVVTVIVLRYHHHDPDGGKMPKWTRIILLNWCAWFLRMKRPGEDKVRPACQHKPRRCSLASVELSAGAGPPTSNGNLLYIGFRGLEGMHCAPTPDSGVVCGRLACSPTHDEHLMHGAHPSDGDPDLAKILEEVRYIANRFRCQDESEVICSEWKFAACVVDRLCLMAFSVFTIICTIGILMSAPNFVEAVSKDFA

T1 sequence (P36544 23-502): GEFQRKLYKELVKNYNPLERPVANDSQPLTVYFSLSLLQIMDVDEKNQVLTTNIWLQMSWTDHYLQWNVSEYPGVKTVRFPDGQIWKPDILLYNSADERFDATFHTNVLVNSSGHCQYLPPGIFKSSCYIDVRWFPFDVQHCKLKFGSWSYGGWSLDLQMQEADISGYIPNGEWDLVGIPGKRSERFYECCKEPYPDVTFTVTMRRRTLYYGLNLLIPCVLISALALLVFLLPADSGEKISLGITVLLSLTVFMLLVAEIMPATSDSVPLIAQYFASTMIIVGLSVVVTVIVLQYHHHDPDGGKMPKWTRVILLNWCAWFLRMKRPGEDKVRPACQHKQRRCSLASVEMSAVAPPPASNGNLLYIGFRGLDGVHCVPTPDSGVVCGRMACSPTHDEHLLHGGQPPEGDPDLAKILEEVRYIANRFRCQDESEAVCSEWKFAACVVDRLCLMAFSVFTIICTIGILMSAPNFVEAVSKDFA

Structure (SMILES) | IC50 [1] [µM] | GCaMP5G Ca2+ imaging in PC12 cells (endogenous receptor), 10 μM, blocked by α-bu (α7-nACh receptor)
CC1CCC(C(C)C)C(O)C1 (racemic) [menthol] | 32.6 ± 2.3 | 
O=C(N[C@H]1CN2CCC1CC2)c1ccc(Cl)cc1 [PNU282987] |  | activation of the α7-nACh receptor with nicotine or the selective α7-agonist PNU282987 (PNU) was associated with a significant increase
